What was measured:
[1] = system: uveal melanoma and hematologic cancer cell lines versus the other tested cell lines; assay: Growth of uveal melanoma, hematological and other cancer cell lines, day 3 and day 7, Cell-titer glo (Example 7); assay type: cell-based
[2] = system: parental MP41 cells; assay: 7-day growth inhibition assay, parental cells (Example 14)
[3] = system: Uveal melanoma cell lines (92-1, MP41, MP38, MP46) and non-small cell lung cancer cells (NCIH1299); assay: 3-day growth inhibition, Cell-titer glow (Example 12); assay type: cell-based; conditions: 0 to 10 μM, 3 days
[4] = system: uveal melanoma, hematologic cancer, prostate cancer, breast cancer, and Ewing's sarcoma cell lines versus the other tested cell lines; conditions: 0 to 10 μM; day 3 and day 7
[5] = Body weight change of tumor-bearing mice (Example 16); assay type: in vivo; conditions: all treatments, once daily oral gavage, 3 weeks
[6] = system: PKC inhibitor (PKCi)-resistant MP41 uveal melanoma cells; assay: 7-day growth inhibition assay, PKC inhibitor-resistant cells (Example 14)
[7] = target: BRM (Homo sapiens, UniProt P51531); assay: biochemical
[8] = Body weight change of tumor-bearing mice (Example 18); assay type: in vivo; conditions: all treatments, once daily oral gavage, 3 weeks
[9] = system: Uveal melanoma cell lines (92-1, MEL202, MP41, MP38, MP46), prostate cancer cells (22RV1), acute leukemia cells (EOL1, THP1), and histocytic lymphoma cells …; assay: 3-day growth inhibition, Cell-titer glow, all cell lines (Example 17); assay type: cell-based; conditions: 0 to 2 μM (uveal melanoma) or 0 to 1 μM (other cell lines), 3 days
[10] = system: 92-1 uveal melanoma cells; assay: Uveal melanoma tumor growth inhibition in vivo (Example 18); set-up: species or system Nude mice; conditions: once daily oral gavage, increasing doses, 3 weeks

Sequence of BRM (P51531 whole entry): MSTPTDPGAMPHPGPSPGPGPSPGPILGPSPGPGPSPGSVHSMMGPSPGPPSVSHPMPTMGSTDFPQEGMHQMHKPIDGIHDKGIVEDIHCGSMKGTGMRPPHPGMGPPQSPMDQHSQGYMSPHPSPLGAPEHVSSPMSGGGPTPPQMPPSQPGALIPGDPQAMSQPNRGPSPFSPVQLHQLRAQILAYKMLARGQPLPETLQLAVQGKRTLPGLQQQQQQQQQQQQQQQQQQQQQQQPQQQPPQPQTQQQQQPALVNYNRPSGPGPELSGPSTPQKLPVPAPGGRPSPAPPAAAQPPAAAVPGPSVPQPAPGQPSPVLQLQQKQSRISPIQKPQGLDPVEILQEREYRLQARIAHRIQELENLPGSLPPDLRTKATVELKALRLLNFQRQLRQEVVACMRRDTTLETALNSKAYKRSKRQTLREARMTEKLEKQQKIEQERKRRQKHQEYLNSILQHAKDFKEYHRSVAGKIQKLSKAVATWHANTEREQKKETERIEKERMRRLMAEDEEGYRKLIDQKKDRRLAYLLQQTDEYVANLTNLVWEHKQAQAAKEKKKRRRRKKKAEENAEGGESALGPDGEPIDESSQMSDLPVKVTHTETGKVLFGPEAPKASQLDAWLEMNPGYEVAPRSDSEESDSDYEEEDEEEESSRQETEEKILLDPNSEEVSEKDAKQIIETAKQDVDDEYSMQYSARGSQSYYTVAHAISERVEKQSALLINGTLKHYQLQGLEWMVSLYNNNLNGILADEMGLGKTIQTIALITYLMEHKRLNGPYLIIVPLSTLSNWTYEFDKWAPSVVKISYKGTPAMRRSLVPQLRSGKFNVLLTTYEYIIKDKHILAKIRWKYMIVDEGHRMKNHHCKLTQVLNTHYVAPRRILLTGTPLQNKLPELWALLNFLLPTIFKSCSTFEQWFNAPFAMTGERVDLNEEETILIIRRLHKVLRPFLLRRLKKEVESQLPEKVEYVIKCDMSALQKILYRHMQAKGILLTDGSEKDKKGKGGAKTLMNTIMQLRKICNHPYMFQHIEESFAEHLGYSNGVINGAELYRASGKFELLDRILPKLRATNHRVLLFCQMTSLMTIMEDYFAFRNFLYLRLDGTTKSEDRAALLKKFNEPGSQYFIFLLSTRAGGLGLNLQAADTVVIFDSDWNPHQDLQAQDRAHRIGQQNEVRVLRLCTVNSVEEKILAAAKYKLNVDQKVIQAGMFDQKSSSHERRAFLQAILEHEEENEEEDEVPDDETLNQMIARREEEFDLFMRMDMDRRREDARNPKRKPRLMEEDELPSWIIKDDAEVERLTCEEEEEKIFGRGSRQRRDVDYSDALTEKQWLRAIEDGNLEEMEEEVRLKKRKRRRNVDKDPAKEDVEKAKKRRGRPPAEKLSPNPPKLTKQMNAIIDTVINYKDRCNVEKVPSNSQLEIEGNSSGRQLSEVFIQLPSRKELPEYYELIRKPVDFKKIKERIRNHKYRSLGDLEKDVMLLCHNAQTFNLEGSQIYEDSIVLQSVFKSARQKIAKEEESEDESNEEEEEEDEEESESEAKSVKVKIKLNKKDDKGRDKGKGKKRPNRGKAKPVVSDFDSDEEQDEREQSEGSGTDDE

With `CSCC[C@H](NC(=O)c1ccc(N)cc1)C(=O)Nc1nc(-c2cccc(-c3ccncc3)c2)cs1` [Compound A] the “sensitivity of cell lines to growth inhibition (GI50, FIG. 1)” value ([1]; 0 to 10 μM, day 3 and day 7) was “more sensitive to BRG1/BRM inhibition than the other tested cell lines” and the “duration of growth inhibition” value ([1]; uveal melanoma and hematologic cancer cell lines) was “maintained through day 7”.
For `CSCC[C@H](NC(=O)c1ccn(S(C)(=O)=O)c1)C(=O)Nc1nc(-c2cccc(-c3ccncc3)c2)cs1` [Compound B], the “growth inhibition, parental MP41 cell line (FIG. 10)” value [2] was “strong growth inhibition”, the “growth inhibition (FIG. 6)” value [3] was “potent growth inhibition in the cell lines” and the “sensitivity of cell lines to growth inhibition (FIG. 4)” value [4] was “more sensitive to BRG1/BRM inhibition than the other tested cell lines”.
For `C[C@@H]1CN(c2cccc(-c3csc(NC(=O)CNC(=O)c4ccn(C(C)(C)C)c4)n3)n2)C[C@H](C)O1` [Compound C], the “tolerability, body weight change (FIG. 13)” value [5] was “well tolerated with no body weight loss observed”.
For `CC1(N)CCN(c2cccnc2NC(=O)c2nc(-c3ncccc3C(F)(F)F)cnc2N)CC1` [LXS196], the “sensitivity of PKCi-resistant cells relative to parental MP41 cells (FIG. 9, FIG. 10)” value [6] was “could tolerate growth at higher concentrations of LXS196 than could the parental MP41 cell line”.
With `[2H]C([2H])([2H])OC([2H])([2H])[C@@H](NC(=O)c1ccn(S(C)(=O)=O)c1)C(=O)Nc1nc(-c2cccc(N3C[C@@H](C)O[C@@H](C)C3)n2)cs1` [N—((R)-1-((4-(6-(cis-2,6-dimethylmorpholino)pyridin-2-yl)thiazol-2-yl)amino)-3-(methoxy-d3)-1-oxopropan-2-yl-3,3-d2)-1-(methylsulfonyl)-1H-pyrrole-3-carboxamide] the IC50 [7] was 443 nM.
`[2H]C([2H])([2H])OC([2H])([2H])[C@H](NC(=O)c1ccn(S(C)(=O)=O)c1)C(=O)Nc1nc(-c2cccc(N3C[C@@H](C)O[C@@H](C)C3)n2)cs1` [N—((S)-1-((4-(6-(cis-2,6-dimethylmorpholino)pyridin-2-yl)thiazol-2-yl)amino)-3-(methoxy-d3)-1-oxopropan-2-yl-3,3-d2)-1-(methylsulfonyl)-1H-pyrrole-3-carboxamide] gave an IC50 [7] of 4.6 nM.
In the case of `COC[C@H](NC(=O)c1ccn(S(C)(=O)=O)c1)C(=O)Nc1nc(-c2cccc(N3C[C@@H](C)O[C@@H](C)C3)n2)cs1` [N—((S)-1-((4-(6-(cis-2,6-dimethylmorpholino)pyridin-2-yl)thiazol-2-yl)amino)-3-methoxy-1-oxopropan-2-yl)-1-(methylsulfonyl)-1H-pyrrole-3-carboxamide], the IC50 [7] is reported as 3.9 nM, the “tolerability based on % body weight change (FIG. 16)” value [8] is reported as “well tolerated” and the “growth inhibition (FIG. 14)” value [9] is reported as “potent growth inhibition in all the cell lines”. For the same compound, the “tumor growth inhibition (FIG. 15)” value [10] was “tumor growth inhibition in a dose-dependent manner”.
